Experimental data taken from ChEMBL document CHEMBL2375240, “The alpha-carbonic anhydrase from the thermophilic bacterium Sulfurihydrogenibium yellowstonense YO3AOP1 is highly susceptible to inhibition by sulfonamides” (Bioorg Med Chem, 2013).

Target: Carbonic anhydrase 1 (Homo sapiens, UniProt P00915)
Sequence (P00915 whole entry): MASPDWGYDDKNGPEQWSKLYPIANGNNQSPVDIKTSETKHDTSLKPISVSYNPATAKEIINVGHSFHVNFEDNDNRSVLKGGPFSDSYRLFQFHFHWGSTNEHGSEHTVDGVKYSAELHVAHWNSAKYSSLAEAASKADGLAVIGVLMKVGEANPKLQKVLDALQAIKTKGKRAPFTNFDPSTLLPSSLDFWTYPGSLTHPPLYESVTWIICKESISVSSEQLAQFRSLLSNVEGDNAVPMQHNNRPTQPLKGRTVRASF

Ki	SMILES
55 nM	Nc1ccc2nc(S(N)(=O)=O)sc2c1
23000 nM	NS(=O)(=O)c1nc2ccc(OCCO)cc2s1
185 nM	Cn1nc(S(N)(=O)=O)s/c1=N/S(=O)(=O)c1ccc(N)cc1
